ChEMBL document CHEMBL1201862, “PubChem BioAssay data set” (2004)
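Cells were grown in 96-well plates and exposed to each compound for 48 hours at five concentrations; endpoints were interpolated linearly between bracketing concentrations, or set to the highest concentration if not reached. GI50 marks 50% less growth.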 Calls of active or inactive are those of the source. No stated cut-off is given here; in the data, active = GI50 up to about 1.1 µM and inactive = higher.

Key:
Test in all cases: NCI-60 cell line screen, 48 h
ACHN = test system: ACHN
CCRF-CEM = test system: CCRF-CEM
EKVX = test system: EKVX
HCT-116 = test system: HCT-116
HCT-15 = test system: HCT-15
HL-60 = test system: HL-60
Hs-578T = test system: Hs-578T
K562 = test system: K562
LOX IMVI = test system: LOX IMVI
M14 = test system: M14
NCI/ADR-RES = test system: NCI/ADR-RES
OVCAR-4 = test system: OVCAR-4
OVCAR-8 = test system: OVCAR-8
RPMI-8226 = test system: RPMI-8226
RXF 393 = test system: RXF 393
UACC-62 = test system: UACC-62
SF-268 = test system: SF-268
SNB-75 = test system: SNB-75
T47D = test system: T47D
SK-MEL-2 = test system: SK-MEL-2

| SMILES | GI50 (ACHN) | GI50 (CCRF-CEM) | GI50 (EKVX) | GI50 (HCT-116) | GI50 (HCT-15) [µM] | GI50 (HL-60) | GI50 (Hs-578T) | GI50 (K562) | GI50 (LOX IMVI) | GI50 (M14) | GI50 (NCI/ADR-RES) | GI50 (OVCAR-4) | GI50 (OVCAR-8) | GI50 (RPMI-8226) | GI50 (RXF 393) | GI50 (UACC-62) | GI50 (SF-268) | GI50 (SNB-75) | GI50 (T47D) | GI50 (SK-MEL-2) |
| --- | --- | --- | --- | --- | --- | --- | --- | --- | --- | --- | --- | --- | --- | --- | --- | --- | --- | --- | --- | --- |
| O=C1CCCCC[C@]12SC[C@H]1CON=C12 | 27.8 µM (inactive) | 21.9 µM (inactive) | 31 µM (inactive) | 35.2 µM (inactive) | 31.3 | 25.9 µM (inactive) | 59 µM (inactive) | 42.6 µM (inactive) | 35.2 µM (inactive) | 22.3 µM (inactive) | 25.9 µM (inactive) | 73.8 µM (inactive) | 65.8 µM (inactive) | 27.2 µM (inactive) | 21.1 µM (inactive) | 14.5 µM (inactive) | – | – | – | – |
| CC(C)(C)C1=NC(=S)SC2=NC(=O)C3(NN21)c1ccccc1-c1ccccc13 | 6.14 µM (inactive) | 8.71 µM (inactive) | 2.67 µM (inactive) | – | 9.27 | 6.79 µM (inactive) | – | 5.05 µM (inactive) | > 10 µM (inactive) | > 10 µM (inactive) | 5.41 µM (inactive) | 7.98 µM (inactive) | > 10 µM (inactive) | 5.08 µM (inactive) | > 10 µM (inactive) | > 10 µM (inactive) | > 10 µM (inactive) | > 10 µM (inactive) | 2.04 µM (inactive) | – |
| CCOC(=O)CNC1C(NC(C)=O)C(OC)OC2COC(c3ccccc3)OC21 (stereo not given) | > 100 µM (inactive) | > 100 µM (inactive) | > 100 µM (inactive) | > 100 µM (inactive) | > 100 | > 100 µM (inactive) | – | > 100 µM (inactive) | > 100 µM (inactive) | > 100 µM (inactive) | – | > 100 µM (inactive) | > 100 µM (inactive) | > 100 µM (inactive) | > 100 µM (inactive) | > 100 µM (inactive) | > 100 µM (inactive) | > 100 µM (inactive) | – | > 100 µM (inactive) |
| COC(=O)c1cc(-c2ccc(-c3ccc(O)cc3)cc2)cc(-c2ccc(-c3ccc(O)cc3)cc2)c1 | 8.71 µM (inactive) | 14.8 µM (inactive) | 11.9 µM (inactive) | 5.64 µM (inactive) | 7.74 | – | – | 4.51 µM (inactive) | 6.14 µM (inactive) | 13.4 µM (inactive) | 11.7 µM (inactive) | 13.5 µM (inactive) | – | 10.7 µM (inactive) | 5.62 µM (inactive) | – | 4.04 µM (inactive) | 7.74 µM (inactive) | 4.61 µM (inactive) | 15.3 µM (inactive) |
| Cc1ccc(C(=O)NCc2ccccc2)cc1/N=N/N(C)C | > 75.3 µM (inactive) | 87.7 µM (inactive) | > 100 µM (inactive) | > 72.1 µM (inactive) | > 83 | 37.2 µM (inactive) | > 100 µM (inactive) | > 100 µM (inactive) | 58.1 µM (inactive) | > 100 µM (inactive) | 86.3 µM (inactive) | > 76.2 µM (inactive) | > 100 µM (inactive) | 40.9 µM (inactive) | – | > 100 µM (inactive) | > 62.5 µM (inactive) | – | 39.7 µM (inactive) | > 100 µM (inactive) |
| Cc1c(N=C(S)Nc2ccc(Cl)cc2)c(=O)n(-c2ccccc2)n1C | > 100 µM (inactive) | > 100 µM (inactive) | > 100 µM (inactive) | > 100 µM (inactive) | > 100 | > 100 µM (inactive) | > 100 µM (inactive) | > 100 µM (inactive) | > 100 µM (inactive) | > 100 µM (inactive) | > 100 µM (inactive) | – | – | > 100 µM (inactive) | > 100 µM (inactive) | > 100 µM (inactive) | > 100 µM (inactive) | > 100 µM (inactive) | – | – |
| CN(c1ccc(Cl)cc1)S(=O)(=O)c1cccc([N+](=O)[O-])c1 | 99.1 µM (inactive) | 27.5 µM (inactive) | 66.5 µM (inactive) | 34 µM (inactive) | 47.1 | > 10 µM (inactive) | > 100 µM (inactive) | 26.9 µM (inactive) | 41.9 µM (inactive) | 43.4 µM (inactive) | 36.7 µM (inactive) | > 100 µM (inactive) | > 100 µM (inactive) | 39.1 µM (inactive) | 45.4 µM (inactive) | 39.4 µM (inactive) | 66.7 µM (inactive) | 56.5 µM (inactive) | – | 44.2 µM (inactive) |
| CSc1ncnc2c1ncn2CCC(=O)O | > 100 µM (inactive) | > 100 µM (inactive) | > 100 µM (inactive) | > 100 µM (inactive) | – | > 100 µM (inactive) | – | > 100 µM (inactive) | > 100 µM (inactive) | > 100 µM (inactive) | > 100 µM (inactive) | > 100 µM (inactive) | > 100 µM (inactive) | > 100 µM (inactive) | > 100 µM (inactive) | > 100 µM (inactive) | > 100 µM (inactive) | > 100 µM (inactive) | – | – |
